Measured values from ChEMBL document CHEMBL1201862, “PubChem BioAssay data set” (2004).
Active and inactive are the calls of the source.

Key:
Large T antigen = Large T antigen (Simian virus 40, UniProt P03070); type: functional, Betapolyomavirus macacae;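 note: Confirmatory-stage PubChem screen for compounds that inhibit SV40 T antigen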
[1] = target: FAD-linked sulfhydryl oxidase ALR (Homo sapiens, UniProt P55789); experiment: inhibitors of human ALR sulfhydryl oxidase, dose response, biochemical, H2O2 detection, luminescence, cherry-pick (AID 493248)
Sequence of FAD-linked sulfhydryl oxidase ALR (P55789 whole entry): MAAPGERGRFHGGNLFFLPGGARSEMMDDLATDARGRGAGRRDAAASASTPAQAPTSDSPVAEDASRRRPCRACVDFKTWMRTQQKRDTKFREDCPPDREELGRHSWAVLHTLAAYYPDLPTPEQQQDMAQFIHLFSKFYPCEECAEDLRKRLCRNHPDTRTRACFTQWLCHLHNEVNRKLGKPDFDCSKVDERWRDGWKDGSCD

Genome polyprotein = Genome polyprotein (dengue virus type 2, UniProt P29990); experiment: Dengue-2 NS5 methyltransferase inhibitors, primary screen, biochemical, confirmation dose response (AID 588689); type: functional
Sequence of Genome polyprotein (P29990 2492-3391 limits assumed): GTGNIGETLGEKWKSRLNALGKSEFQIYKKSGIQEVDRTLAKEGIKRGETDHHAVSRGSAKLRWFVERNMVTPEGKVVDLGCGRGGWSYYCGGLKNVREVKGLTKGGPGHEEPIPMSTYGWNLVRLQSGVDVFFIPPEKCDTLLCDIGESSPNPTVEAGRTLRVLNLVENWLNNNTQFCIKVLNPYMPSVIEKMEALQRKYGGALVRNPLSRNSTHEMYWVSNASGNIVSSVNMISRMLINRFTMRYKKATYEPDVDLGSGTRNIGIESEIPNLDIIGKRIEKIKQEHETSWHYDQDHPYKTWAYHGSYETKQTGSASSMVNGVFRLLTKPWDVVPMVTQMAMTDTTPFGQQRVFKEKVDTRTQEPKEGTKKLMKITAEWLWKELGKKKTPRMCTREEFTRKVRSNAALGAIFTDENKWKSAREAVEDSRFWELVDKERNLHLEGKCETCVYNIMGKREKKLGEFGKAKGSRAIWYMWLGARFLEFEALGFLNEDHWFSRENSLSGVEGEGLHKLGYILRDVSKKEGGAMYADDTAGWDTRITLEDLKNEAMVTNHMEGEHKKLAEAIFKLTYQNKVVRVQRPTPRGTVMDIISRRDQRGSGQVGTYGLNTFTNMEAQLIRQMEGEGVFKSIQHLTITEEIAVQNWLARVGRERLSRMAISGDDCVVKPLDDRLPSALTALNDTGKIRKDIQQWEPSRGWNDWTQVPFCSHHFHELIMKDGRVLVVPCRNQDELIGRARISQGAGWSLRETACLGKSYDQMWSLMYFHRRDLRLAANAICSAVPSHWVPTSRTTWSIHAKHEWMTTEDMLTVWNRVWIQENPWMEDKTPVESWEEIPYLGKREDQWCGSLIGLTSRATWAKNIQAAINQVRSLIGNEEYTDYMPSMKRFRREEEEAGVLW

[2] = target: T1, Carboxy-terminal domain RNA polymerase II polypeptide A small phosphatase 1 (Homo sapiens, UniProt Q9GZU7); experiment: inhibitors of CTDSP1, concentration-response testing, biochemical assay, absorbance-based, actives from ultra-high-throughput screening (AID 540297); type: functional
T1 sequence (Q9GZU7 whole entry): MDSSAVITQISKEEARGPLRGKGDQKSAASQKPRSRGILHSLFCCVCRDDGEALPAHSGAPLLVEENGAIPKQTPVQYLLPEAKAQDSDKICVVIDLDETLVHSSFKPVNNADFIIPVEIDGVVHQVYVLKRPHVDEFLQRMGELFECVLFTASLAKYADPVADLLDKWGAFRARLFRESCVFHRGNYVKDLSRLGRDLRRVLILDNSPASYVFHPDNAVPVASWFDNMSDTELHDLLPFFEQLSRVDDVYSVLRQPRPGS

[3] = target: DNA (cytosine-5)-methyltransferase 1 (Homo sapiens, UniProt P26358); experiment: DNMT1 methyltransferase inhibitors, confirmation, biochemical, fluorescent molecular beacon (AID 602386); type: functional
Melanocortin receptor 4 = Melanocortin receptor 4 (Homo sapiens, UniProt P32245); experiment: MC4R antagonist potency on cAMP, dose response, cell-based, TR-FRET, biased antagonists (AID 602298); type: functional;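 note: antagonist potency against agonist-stimulated cAMP production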
Sequence of Melanocortin receptor 4 (P32245 whole entry): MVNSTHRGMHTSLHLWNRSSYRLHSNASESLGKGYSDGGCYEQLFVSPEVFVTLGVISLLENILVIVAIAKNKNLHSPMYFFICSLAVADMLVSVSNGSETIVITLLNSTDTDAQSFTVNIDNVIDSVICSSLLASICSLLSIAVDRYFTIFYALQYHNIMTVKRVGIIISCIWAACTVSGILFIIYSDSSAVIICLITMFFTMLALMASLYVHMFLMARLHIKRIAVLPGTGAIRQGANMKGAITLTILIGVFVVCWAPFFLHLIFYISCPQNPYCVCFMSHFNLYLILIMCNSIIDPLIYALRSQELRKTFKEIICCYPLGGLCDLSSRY

[4] = nonselective inhibitors of cellular cAMP signaling, dose response, counter-screen for MC4R biased antagonist project, cell-based, TR-FRET cAMP detection (AID 602305); type: functional;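 note: U2OS cells stimulated with forskolin near its EC80 as the cAMP inducer; potency is for inhibition of forskolin-stimulated cAMP signaling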
[5] = target: T2, RNA-binding protein pos-1 (Caenorhabditis elegans, UniProt G5EF15); experiment: inhibitors of POS-1/mex-3 RNA binding, dose response, biochemical, fluorescence polarization (AID 1964);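 note: purified POS-1 fused to maltose binding protein made in E. coli; potency of compounds blocking POS-1 binding to fluorescent RNA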
T2 sequence (G5EF15 whole entry): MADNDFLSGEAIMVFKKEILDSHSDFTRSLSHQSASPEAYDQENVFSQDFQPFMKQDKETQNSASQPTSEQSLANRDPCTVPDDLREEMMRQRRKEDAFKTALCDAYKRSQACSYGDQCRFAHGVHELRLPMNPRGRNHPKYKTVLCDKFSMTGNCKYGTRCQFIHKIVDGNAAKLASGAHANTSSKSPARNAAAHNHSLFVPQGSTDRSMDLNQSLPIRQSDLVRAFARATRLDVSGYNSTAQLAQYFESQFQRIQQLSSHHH

[6] = target: T3, Zinc finger protein mex-5 (Caenorhabditis elegans, UniProt Q9XUB2); experiment: MEX-5/TCR-2 RNA interaction inhibitors, dose response, biochemical, C. elegans, fluorescence polarization (AID 1960)
T3 sequence (Q9XUB2 whole entry): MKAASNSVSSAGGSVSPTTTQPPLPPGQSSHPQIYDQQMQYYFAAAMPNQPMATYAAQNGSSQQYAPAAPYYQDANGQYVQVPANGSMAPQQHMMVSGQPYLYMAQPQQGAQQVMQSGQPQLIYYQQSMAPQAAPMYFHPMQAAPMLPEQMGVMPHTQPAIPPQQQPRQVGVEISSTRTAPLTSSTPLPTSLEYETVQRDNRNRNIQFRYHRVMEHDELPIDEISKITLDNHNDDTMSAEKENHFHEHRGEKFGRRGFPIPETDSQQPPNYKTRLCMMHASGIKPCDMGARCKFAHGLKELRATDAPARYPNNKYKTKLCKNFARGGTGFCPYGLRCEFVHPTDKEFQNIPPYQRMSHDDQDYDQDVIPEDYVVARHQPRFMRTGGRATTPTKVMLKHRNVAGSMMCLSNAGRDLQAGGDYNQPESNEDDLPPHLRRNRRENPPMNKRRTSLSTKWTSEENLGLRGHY

Streptokinase A = target: T4, Streptokinase A (Streptococcus pyogenes serotype M1, UniProt P10520); experiment: S. pyogenes streptokinase expression inhibitors, potency, dose response, plasminogen activation absorbance, OD405 (AID 1914); type: functional, Streptococcus pyogenes M1 GAS;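 note: secreted streptokinase activity via plasminogen activation per viability signal from cell pellet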
T4 sequence (P10520 whole entry): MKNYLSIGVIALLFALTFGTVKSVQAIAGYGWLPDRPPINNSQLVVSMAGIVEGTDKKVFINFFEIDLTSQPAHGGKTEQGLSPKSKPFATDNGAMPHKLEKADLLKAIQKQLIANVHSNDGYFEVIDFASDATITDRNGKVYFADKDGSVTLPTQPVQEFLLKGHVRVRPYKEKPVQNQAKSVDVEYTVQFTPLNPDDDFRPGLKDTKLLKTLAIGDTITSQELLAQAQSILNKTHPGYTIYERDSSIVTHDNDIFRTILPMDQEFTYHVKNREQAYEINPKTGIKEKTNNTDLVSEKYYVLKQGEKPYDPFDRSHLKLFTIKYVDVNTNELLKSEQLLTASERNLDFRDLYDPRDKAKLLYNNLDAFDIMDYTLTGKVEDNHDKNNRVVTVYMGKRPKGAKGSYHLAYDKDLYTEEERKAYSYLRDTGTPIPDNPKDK

Streptococcus = experiment: Group A Streptococcus viability loss, dose response, counter-screen for streptokinase expression inhibitor project, luminescence, BacTiterGlo (AID 1915); type: functional, organism-based;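 note: potency for reduction of bacterial viability or growth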
CHO = experiment: cytotoxicity in TLR9-MyD88 CHO cells, dose response, cytotoxicity control for TLR9-MyD88 binding inhibitor project, cell-based, luminescence (AID 588339); type: functional, hamster; settings: Cricetulus griseus;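 note: CHO cells stably coexpressing TLR9 and MyD88 fusions from primary screen; compound exposure lasted 48 hours before viability readout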
Beta Lactamase = Beta Lactamase (Pseudomonas aeruginosa, UniProt Q932Y6); experiment: beta-lactamase reporter inhibitor potency, dose response, artefact control for TLR9-MyD88 binding inhibitor project, BLA reporter cells, FRET fluorescence (AID 588341); type: cell-based;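 note: cell based assay in CHO-K1 cells stably expressing beta-lactamase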
Sequence of Beta Lactamase (Q932Y6 whole entry): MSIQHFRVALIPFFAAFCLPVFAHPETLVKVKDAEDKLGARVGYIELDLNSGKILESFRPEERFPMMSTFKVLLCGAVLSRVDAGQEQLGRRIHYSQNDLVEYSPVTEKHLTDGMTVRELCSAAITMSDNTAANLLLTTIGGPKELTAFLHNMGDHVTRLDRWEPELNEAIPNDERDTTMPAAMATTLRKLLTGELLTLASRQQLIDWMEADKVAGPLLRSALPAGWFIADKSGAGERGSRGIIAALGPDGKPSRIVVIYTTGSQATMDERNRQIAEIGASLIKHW

[7] = HEK293T cell cytotoxicity, dose response, cytotoxicity control for HIV Vif inhibitor project, cherry-picks (AID 652208); type: functional, cell-based
[8] = target: T5, High affinity choline transporter 1 (Homo sapiens, UniProt Q9GZV3); experiment: CHT inhibitors, dose response, cell-based, 5-point CRC, membrane potential dye (AID 504840); type: functional
T5 sequence (Q9GZV3 whole entry): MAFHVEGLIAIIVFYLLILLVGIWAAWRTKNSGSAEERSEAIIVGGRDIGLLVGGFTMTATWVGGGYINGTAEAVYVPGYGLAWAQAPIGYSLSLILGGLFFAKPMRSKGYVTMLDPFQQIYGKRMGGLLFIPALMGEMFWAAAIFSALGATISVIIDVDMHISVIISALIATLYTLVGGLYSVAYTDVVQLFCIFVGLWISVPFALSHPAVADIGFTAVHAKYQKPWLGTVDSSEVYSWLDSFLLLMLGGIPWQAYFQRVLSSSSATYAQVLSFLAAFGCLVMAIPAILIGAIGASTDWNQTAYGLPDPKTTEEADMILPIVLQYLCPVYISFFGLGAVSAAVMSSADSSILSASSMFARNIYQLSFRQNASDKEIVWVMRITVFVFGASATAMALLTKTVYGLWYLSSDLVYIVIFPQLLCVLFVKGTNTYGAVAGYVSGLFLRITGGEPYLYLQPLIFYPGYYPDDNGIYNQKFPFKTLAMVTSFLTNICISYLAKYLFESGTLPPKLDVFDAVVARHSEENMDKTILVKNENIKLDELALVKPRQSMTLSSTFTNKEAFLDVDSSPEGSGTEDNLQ

[9] = target: T5, High affinity choline transporter 1; experiment: CHT inhibitors, dose response, cell-based, 10-point CRC, membrane potential dye (AID 588401); type: functional;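 note: membrane potential dye fluorescence of choline-evoked depolarization via CHT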
Coagulation factor XII = target: T6, Coagulation factor XII (Homo sapiens, UniProt P00748); type: functional;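 note: activated factor XIIa alpha cleaving a fluorogenic AMC peptide substrate; inhibitor potency from loss of enzyme activity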
T6 sequence (P00748 whole entry): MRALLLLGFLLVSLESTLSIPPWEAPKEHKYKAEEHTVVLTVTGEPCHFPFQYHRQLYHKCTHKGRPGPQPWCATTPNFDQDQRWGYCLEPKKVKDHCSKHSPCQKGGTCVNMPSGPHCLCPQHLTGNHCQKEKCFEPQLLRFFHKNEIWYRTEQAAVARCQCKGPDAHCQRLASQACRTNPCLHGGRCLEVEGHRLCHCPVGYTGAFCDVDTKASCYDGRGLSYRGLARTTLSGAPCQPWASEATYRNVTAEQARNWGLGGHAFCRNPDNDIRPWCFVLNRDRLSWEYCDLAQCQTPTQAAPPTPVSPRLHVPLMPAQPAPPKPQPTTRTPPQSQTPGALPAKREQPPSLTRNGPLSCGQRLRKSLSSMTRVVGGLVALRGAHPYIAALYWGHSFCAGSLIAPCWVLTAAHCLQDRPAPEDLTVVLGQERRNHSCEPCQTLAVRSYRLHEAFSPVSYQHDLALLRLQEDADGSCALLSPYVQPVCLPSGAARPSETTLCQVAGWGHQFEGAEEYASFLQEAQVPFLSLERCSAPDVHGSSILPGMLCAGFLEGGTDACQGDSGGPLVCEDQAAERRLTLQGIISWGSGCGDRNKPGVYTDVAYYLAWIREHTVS

[10] = target: T7, Apoptotic protease-activating factor 1 (Homo sapiens, UniProt O14727); type: functional
T7 sequence (O14727 whole entry): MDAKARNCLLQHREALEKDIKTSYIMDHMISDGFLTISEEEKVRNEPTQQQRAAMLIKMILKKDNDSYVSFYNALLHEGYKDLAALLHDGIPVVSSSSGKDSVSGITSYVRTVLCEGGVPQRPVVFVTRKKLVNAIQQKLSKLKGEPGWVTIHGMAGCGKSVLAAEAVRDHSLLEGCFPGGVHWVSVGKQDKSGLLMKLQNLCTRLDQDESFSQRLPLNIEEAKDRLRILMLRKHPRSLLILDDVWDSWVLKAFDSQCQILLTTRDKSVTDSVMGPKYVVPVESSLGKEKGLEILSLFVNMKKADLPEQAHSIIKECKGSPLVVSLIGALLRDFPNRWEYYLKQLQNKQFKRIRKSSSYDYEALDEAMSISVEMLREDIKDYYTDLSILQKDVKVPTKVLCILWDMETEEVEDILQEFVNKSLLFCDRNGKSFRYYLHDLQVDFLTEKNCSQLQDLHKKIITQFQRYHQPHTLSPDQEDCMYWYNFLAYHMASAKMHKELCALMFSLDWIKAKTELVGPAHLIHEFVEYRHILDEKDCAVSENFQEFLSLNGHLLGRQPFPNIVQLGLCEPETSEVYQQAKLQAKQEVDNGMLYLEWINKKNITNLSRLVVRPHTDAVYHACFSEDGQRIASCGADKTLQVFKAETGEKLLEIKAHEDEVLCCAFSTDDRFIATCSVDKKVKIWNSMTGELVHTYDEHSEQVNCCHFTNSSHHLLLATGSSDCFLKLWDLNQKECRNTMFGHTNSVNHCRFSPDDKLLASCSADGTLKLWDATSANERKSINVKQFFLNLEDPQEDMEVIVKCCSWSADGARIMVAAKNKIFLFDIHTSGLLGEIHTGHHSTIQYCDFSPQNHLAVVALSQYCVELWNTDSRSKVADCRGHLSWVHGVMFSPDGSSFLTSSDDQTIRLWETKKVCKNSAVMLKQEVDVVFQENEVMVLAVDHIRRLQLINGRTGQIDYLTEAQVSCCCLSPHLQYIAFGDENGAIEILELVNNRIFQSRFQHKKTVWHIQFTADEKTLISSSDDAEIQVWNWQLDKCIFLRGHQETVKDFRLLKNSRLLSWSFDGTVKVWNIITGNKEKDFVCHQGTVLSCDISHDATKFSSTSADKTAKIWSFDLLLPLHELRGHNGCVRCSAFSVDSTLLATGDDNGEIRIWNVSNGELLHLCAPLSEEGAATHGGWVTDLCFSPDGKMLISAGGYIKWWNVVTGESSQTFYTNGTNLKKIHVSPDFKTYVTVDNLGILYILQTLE

H9c2 = experiment: cells; type: functional, cell-based; settings: Rattus norvegicus, H9c2, Myocardium;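 note: confirmatory concentration-response retest of ultra-high-throughput screening hits for modulation of myocardial damage; cell death induced by hydrogen peroxide oxidative stress; compound pretreatment for 60 min then peroxide exposure for 2 h; potency is for protecting the cells against peroxide damage rather than for killing them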
[11] = target: Ras and Rab interactor 1/Tyrosine-protein kinase ABL1 (Homo sapiens, UniProt P00519+Q13671); type: functional;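 note: biochemical TR-FRET dose-response test measuring inhibition of binding between Rin1 and Abl proteins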
Sequence of Ras and Rab interactor 1/Tyrosine-protein kinase ABL1 (P00519 whole entry): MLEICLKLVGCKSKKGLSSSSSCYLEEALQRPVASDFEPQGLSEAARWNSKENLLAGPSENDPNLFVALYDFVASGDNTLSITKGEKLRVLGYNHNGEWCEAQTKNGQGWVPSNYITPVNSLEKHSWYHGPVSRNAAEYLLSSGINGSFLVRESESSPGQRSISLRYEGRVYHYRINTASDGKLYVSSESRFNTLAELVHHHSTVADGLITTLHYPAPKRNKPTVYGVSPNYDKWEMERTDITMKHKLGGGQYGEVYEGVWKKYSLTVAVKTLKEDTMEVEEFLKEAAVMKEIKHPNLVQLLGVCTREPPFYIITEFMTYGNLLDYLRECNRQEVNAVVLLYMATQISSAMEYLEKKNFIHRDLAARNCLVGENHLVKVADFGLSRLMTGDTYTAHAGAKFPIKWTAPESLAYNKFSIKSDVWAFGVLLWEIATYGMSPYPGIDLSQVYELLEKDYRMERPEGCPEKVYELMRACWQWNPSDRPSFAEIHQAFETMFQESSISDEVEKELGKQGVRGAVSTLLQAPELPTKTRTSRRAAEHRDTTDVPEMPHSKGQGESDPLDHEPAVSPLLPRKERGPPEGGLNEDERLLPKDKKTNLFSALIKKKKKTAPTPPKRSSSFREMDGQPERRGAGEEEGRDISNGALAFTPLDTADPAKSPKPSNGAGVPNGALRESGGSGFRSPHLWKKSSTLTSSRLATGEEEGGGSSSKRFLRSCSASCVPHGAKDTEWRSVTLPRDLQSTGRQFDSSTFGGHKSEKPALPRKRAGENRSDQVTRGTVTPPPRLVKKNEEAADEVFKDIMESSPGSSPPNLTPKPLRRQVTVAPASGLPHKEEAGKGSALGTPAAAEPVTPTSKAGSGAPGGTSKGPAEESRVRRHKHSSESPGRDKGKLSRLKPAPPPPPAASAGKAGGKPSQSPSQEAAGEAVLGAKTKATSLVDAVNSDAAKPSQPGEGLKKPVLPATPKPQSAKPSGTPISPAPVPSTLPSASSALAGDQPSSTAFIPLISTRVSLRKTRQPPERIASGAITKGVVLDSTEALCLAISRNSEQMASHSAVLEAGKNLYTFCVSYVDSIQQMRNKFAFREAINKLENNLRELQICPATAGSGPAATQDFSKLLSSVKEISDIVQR
Sequence of Ras and Rab interactor 1/Tyrosine-protein kinase ABL1 (Q13671 whole entry): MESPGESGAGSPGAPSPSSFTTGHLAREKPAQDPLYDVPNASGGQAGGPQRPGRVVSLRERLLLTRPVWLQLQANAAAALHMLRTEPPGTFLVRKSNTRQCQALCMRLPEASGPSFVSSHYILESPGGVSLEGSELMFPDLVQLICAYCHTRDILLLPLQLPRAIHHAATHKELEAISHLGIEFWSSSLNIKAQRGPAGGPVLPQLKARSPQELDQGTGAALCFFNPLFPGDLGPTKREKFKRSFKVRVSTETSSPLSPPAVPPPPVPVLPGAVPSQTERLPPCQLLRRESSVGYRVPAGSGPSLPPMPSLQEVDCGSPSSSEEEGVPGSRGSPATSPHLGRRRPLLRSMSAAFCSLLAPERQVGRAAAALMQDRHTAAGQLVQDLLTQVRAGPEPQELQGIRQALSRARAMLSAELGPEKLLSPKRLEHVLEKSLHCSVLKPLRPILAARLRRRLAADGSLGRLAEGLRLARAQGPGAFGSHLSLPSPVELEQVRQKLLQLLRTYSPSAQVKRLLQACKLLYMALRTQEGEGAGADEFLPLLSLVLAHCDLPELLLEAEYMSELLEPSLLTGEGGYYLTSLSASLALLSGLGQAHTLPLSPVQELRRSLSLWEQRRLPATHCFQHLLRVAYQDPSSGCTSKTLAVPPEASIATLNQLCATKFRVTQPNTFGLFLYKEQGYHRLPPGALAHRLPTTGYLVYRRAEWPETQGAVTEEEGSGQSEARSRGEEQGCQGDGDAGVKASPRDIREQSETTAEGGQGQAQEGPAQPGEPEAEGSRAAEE

[12] = target: 26S proteasome non-ATPase regulatory subunit 14 (Homo sapiens, UniProt O00487); experiment: inhibition of proteasome subunit RPN11 – biochemical, fluorescence polarization, uHTS hits, confirmation (AID 602368); type: functional
[13] = target: 72 kDa type IV collagenase (Homo sapiens, UniProt P08253); experiment: Dose Response validation of uHTS RPN11 inhibitor hits using a MMP-2 Fluorescence assay.; type: functional
Sequence of 72 kDa type IV collagenase (P08253 whole entry): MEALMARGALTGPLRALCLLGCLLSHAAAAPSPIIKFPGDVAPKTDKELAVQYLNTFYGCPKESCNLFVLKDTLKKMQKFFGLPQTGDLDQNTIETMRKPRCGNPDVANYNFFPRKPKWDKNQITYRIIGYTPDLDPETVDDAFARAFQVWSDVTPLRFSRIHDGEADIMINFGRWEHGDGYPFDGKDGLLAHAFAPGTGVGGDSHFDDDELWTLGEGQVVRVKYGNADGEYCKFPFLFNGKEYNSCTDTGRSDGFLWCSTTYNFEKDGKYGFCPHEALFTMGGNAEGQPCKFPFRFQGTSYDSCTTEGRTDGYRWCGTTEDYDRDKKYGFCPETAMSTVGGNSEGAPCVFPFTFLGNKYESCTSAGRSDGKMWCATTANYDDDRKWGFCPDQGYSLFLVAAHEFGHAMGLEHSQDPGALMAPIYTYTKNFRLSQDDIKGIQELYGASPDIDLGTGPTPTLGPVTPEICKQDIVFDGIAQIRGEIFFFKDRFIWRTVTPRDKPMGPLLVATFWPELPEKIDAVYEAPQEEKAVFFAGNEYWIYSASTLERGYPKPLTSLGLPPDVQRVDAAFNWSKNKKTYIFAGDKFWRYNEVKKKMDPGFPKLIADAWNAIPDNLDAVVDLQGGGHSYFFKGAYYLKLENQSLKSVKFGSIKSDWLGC

Prothrombin = Prothrombin (Bos taurus, UniProt P00735); experiment: thrombin inhibition, dose response, biochemical, fluorescence polarization, uHTS hits (AID 602369); type: functional

Sequence of Large T antigen (P03070 whole entry): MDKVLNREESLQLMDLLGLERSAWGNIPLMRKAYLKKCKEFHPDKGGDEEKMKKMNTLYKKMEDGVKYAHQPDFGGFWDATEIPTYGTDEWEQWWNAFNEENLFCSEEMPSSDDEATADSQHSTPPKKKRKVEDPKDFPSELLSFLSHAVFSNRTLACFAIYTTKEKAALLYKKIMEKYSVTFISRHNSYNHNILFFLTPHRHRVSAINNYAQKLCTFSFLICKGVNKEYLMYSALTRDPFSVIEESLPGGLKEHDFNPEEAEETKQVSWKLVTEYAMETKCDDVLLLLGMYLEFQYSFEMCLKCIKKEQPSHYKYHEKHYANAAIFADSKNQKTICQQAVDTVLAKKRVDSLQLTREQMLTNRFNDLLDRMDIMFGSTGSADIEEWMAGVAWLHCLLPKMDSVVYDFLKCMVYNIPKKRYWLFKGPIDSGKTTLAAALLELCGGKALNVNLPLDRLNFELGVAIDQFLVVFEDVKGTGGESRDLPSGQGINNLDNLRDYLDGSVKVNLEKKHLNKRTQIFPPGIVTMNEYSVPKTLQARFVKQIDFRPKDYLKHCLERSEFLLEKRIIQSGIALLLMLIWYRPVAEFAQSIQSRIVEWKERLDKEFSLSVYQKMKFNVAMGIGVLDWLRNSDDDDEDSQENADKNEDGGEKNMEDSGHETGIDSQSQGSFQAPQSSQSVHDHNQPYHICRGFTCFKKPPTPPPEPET

SMILES: O=C1NN(c2ccccc2)C(=O)/C1=C/c1ccc(-c2ccc(C(=O)O)cc2)o1
- IC50 (Large T antigen): 20.6 µM (active)
- AC50 [1]: 0.11 µM (active)
- IC50 (Genome polyprotein): > 100 µM (active)
- IC50 [2]: 4.57 µM (active)
- IC50 [3]: 10.2 µM (active)

SMILES: COC(=O)C(CC(C)C)NC(=O)/C=C/c1ccc(Cl)cc1 (stereo unspecified)
- IC50 (Melanocortin receptor 4): > 64.6 µM (inactive)
- IC50 [4]: > 64.6 µM (inactive)

SMILES: Nc1c(C(=O)Nc2nc3ccccc3s2)sc2nc(-c3cccs3)ccc12
- EC50 [5]: 19.2 µM (inconclusive)
- EC50 [6]: > 150 µM (inconclusive)
- EC50 (Streptokinase A): > 150 µM (not active)
- EC50 (Streptococcus): 109 µM (active)
- IC50 (CHO): 5.51 µM (active)
- IC50 (Beta Lactamase): 3.93 µM (active)
- AC50 [7]: 7.27 µM (active)

SMILES: N#C/C(=C(/O)c1ccccc1F)c1nc2cc(C(F)(F)F)ccc2s1
- IC50 [8]: 10 µM (active)
- IC50 [9]: 6.31 µM (active)

SMILES: COc1ccc(CCn2c(C)cc(C(=O)CCl)c2C)cc1OC
- IC50 (Coagulation factor XII): > 50 µM (inactive)
- IC50 (Melanocortin receptor 4): > 64.6 µM (inactive)
- IC50 [4]: > 64.6 µM (inactive)

SMILES: Cc1ccc(-c2nn3c(-c4ccco4)nnc3c3ccccc23)cc1S(=O)(=O)NCC1CCCO1 (stereo unspecified)
- IC50 [10]: 5.73 µM (active)
- IC50 (H9c2): > 79 µM (inactive)
- IC50 [11]: > 73.5 µM (inactive)

SMILES: CCN1CCN(c2ncnc3scc(-c4ccc(C)cc4)c23)CC1
- IC50 [8]: 2.09 µM (active)
- IC50 [9]: 1.5 µM (active)

SMILES: CC1(C(=O)N/N=C/c2c(F)c(F)c(F)c(F)c2F)CC1(Cl)Cl (stereo unspecified)
- IC50 (Melanocortin receptor 4): > 7.17 µM (active)
- IC50 [4]: > 64.6 µM (inactive)

SMILES: O=[N+]([O-])c1ccc(N/N=C/c2c[nH]c3ccccc23)cc1
- IC50 (CHO): 47.2 µM (inactive)
- IC50 (Beta Lactamase): 10.2 µM (inactive)
- IC50 [12]: 1.77 µM (active)
- IC50 [13]: > 100 µM (inactive)
- IC50 (Prothrombin): 2.05 µM (active)
